Test results: US20100158973A1 (HADASIT MEDICAL RESEARCH SERVICES & DEVELOPMENT LlIMITED, priority 2006, published 2010)
“And” between values parts separate entries of the source, which are not always exact repeats. Identical values can stand only once. “Also recorded” adds a separate entry of the source.

Experiments:
[1] = test system: SD/Hsd male rats, surgically induced infarct; assay: Infarct (scar) size after LAD ligation, Evans blue/TTC staining and planimetry; type: in vivo
[2] = test system: SD/Hsd male rats, surgically induced infarct; assay: Histopathology of infarcted hearts (hematoxylin and eosin, Masson trichrome); type: in vivo
[3] = test system: SD/Hsd male rats, surgically induced infarct; assay: Echocardiography before and 7 days after LAD ligation; details: for LVEDD (left ventricular end-diastolic diameter) / LVESD (left ventricular end-systolic diameter) / SF (shortening fraction): CBD group
Protocol: In the following experiment 14 SD/Hsd male rats weighing 275-350 g were used.
Rats were anesthetized with ketamine (10%): xylazine (2%), 0.85:0.15 IM 0.1 ml/kg. Animals were intubated and ventilated with a small animal respirator (Harvard Sc.). The heart was exposed via left sternotomy and the LAD was reversibly occluded for 30 minutes using a snare fashioned from an encircling silk ligature and a section of 5 French feeding tube. Coronary occlusion and reperfusion were verified by visual inspection. Following reperfusion the released ligature was left in situ. The chest was then closed in layers using uninterrupted sutures. Rats were extubated, received 30-50 cc saline subcutaneously to replace lost body fluids, and were treated with Rymadil (5 mg/kg, i.p.) analgesia for 3 days. […] The drug and the vehicle solutions were prepared in separate laboratories, ensuring that the staff (e.g. echocardiography and pathology) was blinded to the treatment arm. After 7 days, animals were re-anesthetized and ventilated as described above. The LAD was permanently re-occluded, and the heart harvested for further analysis.
Rats were anesthetized with Ketamine (10%):Xylasine (2%), 0.85:0.15 IM 0.1 ml/kg and the chest cavity was shaved. Echo was carried out prior to surgery and 1 week after, prior to sacrifice of the animals.
Echo imaging was performed using a GE Vivid3 platform, equipped with a 13 MHz linear epiaortic transducer (General Electric, Haifa, Israel). The probe was positioned in a left parasternal position, and 2D imaging of the heart in the short axis was performed using a high frame rate. This image was used to guide an M-mode cursor down the medial axis of the left ventricle. Measurements were performed in triplicates using the leading edge convention for myocardial borders.
The following parameters were measured: Left ventricular end-diastolic diameter (LVEDD) Left ventricular end-systolic diameter (LVESD); anterior wall thickness in diastole and systole (AWTd, AWTs); and Heart rate (HR).
Shortening fraction (SF) was calculated using the above variables.

ApoE−/− mice [4] = assay: Plasma triglyceride levels in ApoE−/− mice on high-fat diet; details: 20 IP injections of 5 mg/kg, 12 h fasting
Protocol: (§1) Twelve- to fourteen-week-old male and female ApoE ApoE^−/− mice on a C57B1/6 background were fed a high-fat diet (Takland adjusted calories, Western-type diet: 2.1% fat, 15% cholesterol, 19.5% casein) for 12 weeks.
Blood samples were collected in capillary tubes following twelve hours of fasting, and immediately centrifuged for plasma removal.
(§2) Control mice were injected with Cremophor:ethanol:saline 1:1:18. Plasma triglyceride levels were assayed following twelve hours fasting using an enzymatic reagent (Sigma™).

ApoE−/− mice [5] = assay: LDL cholesterol levels in ApoE−/− mice (Friedewald formula); details: high-fat diet, 20 IP injections of 5 mg/kg
Protocol: as §1
Blood samples were collected in capillary tubes following twelve hours of fasting, and immediately centrifuged for plasma removal. Plasma samples were assayed for total cholesterol using conventional colorimetric assays.
as §2
LDLc=TC−triglycerides levels/5-HDLc
Statistical analysis was by ANOVA test (ANalysis Of VAriance between groups).

ApoE−/− mice [6] = assay: Size of atherosclerotic plaques in the aorta of ApoE−/− mice
Protocol: ApoE knock-out (ApoE^−/−) mice are known to spontaneously develop atherosclerosis, which may be enhanced by a high-fat diet. Twelve- to fourteen-week-old male and female ApoE ApoE^−/− mice on a C57B1/6 background were fed a high-fat diet (Takland adjusted calories, Western-type diet: 2.1% fat, 15% cholesterol, 19.5% casein) for 12 weeks.
Blood samples were collected in capillary tubes following twelve hours of fasting, and immediately centrifuged for plasma removal. Plasma samples were assayed for total cholesterol using conventional colorimetric assays. Mice were then sacrificed, and their aorta were extracted and examined for the presence and size of atherosclerotic lesions (plaques).
as §2

[7] = Day 7 after LAD ligation, 5 mg/kg IP daily

Cannabidiol [CBD]
% infarct size ([1]; individual animals of CBD-treated group): 16.3% and 15.3% and 14.6% and 13.9% and 6.5% and 7.5% and 7.6% (2×) and 8.1% and 7.8%
mean infarct size as percent of area at risk ([1]; rats, 5 mg/kg IP 1 h before surgery and daily, 7 days, control 28.2±7.0%): 9.6±3.9%
inflammation in heart histology ([2]; FIG. 4B, animal treated with CBD): almost total lack of inflammation
granulation tissue formation with early collagen deposition vs control ([2]; Masson trichrome staining): similar; also recorded: did not affect
inflammatory infiltrate grade (leukocytes infiltrating the border of the infarcted zone) ([2]; graded by pathologist, control animals 2-3): 1+ or nullnil (0)
LVEDD (left ventricular end-diastolic diameter) ([3]; Day 0 (baseline)): 0.70 ± 0.06 mm
LVESD (left ventricular end-systolic diameter) ([3]; Day 0 (baseline)): 0.36 ± 0.08 mm
SF (shortening fraction) ([3]; Day 0 (baseline)): 48.27±8.6%
LVEDD (left ventricular end-diastolic diameter) [3, 7]: 0.72 ± 0.05 mm
LVESD (left ventricular end-systolic diameter) [3, 7]: 0.43 ± 0.07 mm
SF (shortening fraction) ([3]; Day 7 after LAD ligation, 5 mg/kg IP daily, 5 mg/kg): 39.7±8.22%
LV function in M mode echocardiography ([3]; FIG. 4D, CBD-treated animal): preserved LV function
lowering of plasma triglyceride levels compared with control-treated mice (ApoE−/− mice [4]): 59%
lowering of LDL levels vs control (ApoE−/− mice [5]): 17%
LDL cholesterol level (ApoE−/− mice [5]; calculated by Friedewald formula): 1300 mg/dL
atherosclerotic plaques, average % of the aorta area (ApoE−/− mice [6]; first experiment, 12 CBD-treated mice, control 5.5%): 3.18%
plaque area, % of the total aorta area (ApoE−/− mice [6]; second experiment, control 10.6%): 5.09%
